Results from PubChem BioAssay (NCI).
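Method: 48-hour compound exposure of cells in 96-well plates, five concentrations, linear interpolation of endpoints. The concentration for 50% growth inhibition is given as GI50. TGI is the concentration that stops growth completely.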

Columns and labels:
Assay in all cases: inhibition of tumour cell growth, NCI panel, 48 h
[1] = system: SN12C renal
[2] = system: HOP-62 NSCLC
[3] = system: HCT-15 colon
[4] = system: HL-60(TB) leukemia
[5] = system: HCC-2998 colon
[6] = system: NCI-H460 lung
[7] = system: SF-295 CNS
[8] = system: A498 renal
[9] = system: OVCAR-8 ovarian
[10] = system: RXF 393 renal
[11] = system: LOX IMVI melanoma
[12] = system: KM12 colon
[13] = system: OVCAR-5 ovarian
[14] = system: SK-MEL-28 melanoma
[15] = system: MDA-MB-435
[16] = system: SK-OV-3 ovarian
[17] = system: SF-268 CNS
[18] = system: HS 578T breast
[19] = system: EKVX NSCLC
[20] = system: NCI/ADR-RES ovarian
[21] = system: BT-549 breast
[22] = system: RPMI-8226 leukemia
[23] = system: SNB-75 CNS
[24] = system: HT29 colon
[25] = system: MOLT-4 leukemia
[26] = system: CCRF-CEM leukemia
[27] = system: NCI-H226 lung
[28] = system: TK-10 renal
[29] = system: SK-MEL-5 melanoma
[30] = system: OVCAR-4 ovarian
[31] = system: K-562 leukemia
[32] = system: MCF7 breast
[33] = system: UACC-257 melanoma
[34] = system: CAKI-1 renal
[35] = system: COLO 205 colon
[36] = system: SNB-19 CNS
[37] = system: UACC-62 melanoma
[38] = system: HCT-116 colon
[39] = system: SR leukemia
[40] = system: M14 melanoma
[41] = system: SF-539 CNS
[42] = system: A549 NSCLC
[43] = system: DU-145 prostate
[44] = system: UO-31 renal
[45] = system: NCI-H23 lung
[46] = system: T-47D breast
[47] = system: SW-620 colon
[48] = system: HOP-92 NSCLC
[49] = system: NCI-H522 lung
[50] = system: MDA-MB-231 breast
[51] = system: ACHN renal
[52] = system: IGROV1 ovarian
[53] = system: U251 CNS
[54] = system: MALME-3M melanoma
[55] = system: PC-3 prostate
[56] = system: SK-MEL-2 melanoma
[57] = system: 786-0 renal

CN(C)c1ccc(-c2cc(-c3c[nH]c4ccccc34)nc(N)c2C#N)cc1
GI50 [1]: 2870 nM
TGI [1]: 10800 nM
GI50 [2]: 1830 nM
TGI [2]: 6960 nM
GI50 [3]: 485 nM
TGI [3]: 10400 nM
GI50 [4]: 1790 nM
TGI [4]: 6030 nM
GI50 [5]: 2150 nM
TGI [5]: 10500 nM
GI50 [6]: 1060 nM
TGI [6]: 3500 nM
GI50 [7]: 1860 nM
TGI [7]: 4140 nM
GI50 [8]: 1780 nM
TGI [8]: 4660 nM
GI50 [9]: 2780 nM
TGI [9]: 10700 nM
GI50 [10]: 1300 nM
TGI [10]: 3130 nM
GI50 [11]: 1560 nM
TGI [11]: 3580 nM
GI50 [12]: 1850 nM
TGI [12]: 8720 nM
GI50 [13]: 3170 nM
TGI [13]: 19100 nM
GI50 [14]: 1780 nM
TGI [14]: 4600 nM
GI50 [15]: 466 nM
TGI [15]: 10100 nM
GI50 [16]: 2050 nM
TGI [16]: 4880 nM
GI50 [17]: 3890 nM
TGI [17]: 31900 nM
GI50 [18]: 2080 nM
TGI [18]: 6710 nM
GI50 [19]: 3380 nM
TGI [19]: 27200 nM
GI50 [20]: 1820 nM
TGI [20]: > 100000 nM
GI50 [21]: 2220 nM
TGI [21]: 7310 nM
GI50 [22]: 1950 nM
TGI [22]: 4890 nM
GI50 [23]: 1840 nM
TGI [23]: 8960 nM
GI50 [24]: 1720 nM
TGI [24]: 6430 nM
GI50 [25]: 1890 nM
TGI [25]: 14100 nM
GI50 [26]: 1540 nM
TGI [26]: 36400 nM
GI50 [27]: 4230 nM
TGI [27]: 27000 nM
GI50 [28]: 4100 nM
TGI [28]: 39800 nM
GI50 [29]: 1840 nM
TGI [29]: 3600 nM
GI50 [30]: 4780 nM
TGI [30]: 31600 nM
GI50 [31]: 653 nM
TGI [31]: > 100000 nM
GI50 [32]: 1510 nM
TGI [32]: 10400 nM
GI50 [33]: 1890 nM
TGI [33]: 4740 nM
GI50 [34]: 1670 nM
TGI [34]: 7210 nM
GI50 [35]: 2110 nM
TGI [35]: 6030 nM
GI50 [36]: 2960 nM
TGI [36]: > 100000 nM
GI50 [37]: 2050 nM
TGI [37]: 7270 nM
GI50 [38]: 1600 nM
TGI [38]: 4450 nM
GI50 [39]: 419 nM
TGI [39]: 4210 nM
GI50 [40]: 1700 nM
TGI [40]: 4350 nM
GI50 [41]: 1330 nM
TGI [41]: 3050 nM
GI50 [42]: 1920 nM
TGI [42]: 7090 nM
GI50 [43]: 3450 nM
TGI [43]: 21000 nM
GI50 [44]: 1880 nM
TGI [44]: 6370 nM
GI50 [45]: 3130 nM
TGI [45]: 15700 nM
GI50 [46]: 2320 nM
TGI [46]: 7830 nM
GI50 [47]: 2160 nM
TGI [47]: 11300 nM
GI50 [48]: 2140 nM
TGI [48]: 5120 nM
GI50 [49]: 446 nM
TGI [49]: 2160 nM
GI50 [50]: 2160 nM
TGI [50]: 10600 nM
GI50 [51]: 2790 nM
TGI [51]: 23400 nM
GI50 [52]: 2350 nM
TGI [52]: 17600 nM
GI50 [53]: 1530 nM
TGI [53]: 4210 nM
GI50 [54]: 1720 nM
TGI [54]: 4600 nM
GI50 [55]: 2790 nM
TGI [55]: 15600 nM

COc1ccc(-c2cc(-c3cccc4ccccc34)n3c(n2)nc2ccccc23)cc1OC
GI50 [56]: 2570 nM
TGI [56]: 7470 nM
GI50 [1]: 1330 nM
TGI [1]: > 100000 nM
GI50 [2]: 650 nM
TGI [2]: 4510 nM
GI50 [3]: 926 nM
TGI [3]: > 100000 nM
GI50 [4]: 419 nM
TGI [4]: 3290 nM
GI50 [5]: 1620 nM
TGI [5]: 4720 nM
GI50 [6]: 357 nM
TGI [6]: 1750 nM
GI50 [7]: 582 nM
TGI [7]: 5330 nM
GI50 [9]: 1060 nM
TGI [9]: > 100000 nM
GI50 [10]: 2750 nM
TGI [10]: > 100000 nM
GI50 [11]: 975 nM
TGI [11]: 6650 nM
GI50 [12]: 9430 nM
TGI [12]: > 100000 nM
GI50 [13]: 3030 nM
TGI [13]: > 100000 nM
GI50 [14]: 2880 nM
TGI [14]: > 100000 nM
GI50 [15]: 2720 nM
TGI [15]: > 100000 nM
GI50 [16]: 2550 nM
TGI [16]: 44900 nM
GI50 [17]: 1950 nM
TGI [17]: > 100000 nM
GI50 [18]: 1420 nM
TGI [18]: > 100000 nM
GI50 [19]: 2790 nM
TGI [19]: > 100000 nM
GI50 [20]: 2070 nM
TGI [20]: > 100000 nM
GI50 [21]: 2270 nM
TGI [21]: 6090 nM
GI50 [22]: 1340 nM
TGI [22]: 4290 nM
GI50 [57]: 1570 nM
TGI [57]: > 100000 nM
GI50 [23]: 867 nM
TGI [23]: 4600 nM
GI50 [24]: 1910 nM
TGI [24]: 28200 nM
GI50 [25]: 354 nM
TGI [25]: > 100000 nM
GI50 [26]: 556 nM
TGI [26]: > 100000 nM
GI50 [27]: 1160 nM
TGI [27]: 6700 nM
GI50 [28]: 2470 nM
TGI [28]: > 100000 nM
GI50 [29]: 960 nM
TGI [29]: 2840 nM
GI50 [30]: 4770 nM
TGI [30]: > 100000 nM
GI50 [31]: 1320 nM
TGI [31]: > 100000 nM
GI50 [32]: 509 nM
TGI [32]: > 100000 nM
GI50 [33]: 2140 nM
TGI [33]: 40300 nM
GI50 [34]: 559 nM
TGI [34]: > 100000 nM
GI50 [35]: 626 nM
TGI [35]: > 100000 nM
GI50 [36]: 2590 nM
TGI [36]: > 100000 nM
GI50 [37]: 1030 nM
TGI [37]: 7200 nM
GI50 [38]: 1660 nM
TGI [38]: 49000 nM
GI50 [39]: 362 nM
TGI [39]: > 100000 nM
GI50 [40]: 2080 nM
TGI [40]: > 100000 nM
GI50 [41]: 1020 nM
TGI [41]: 7670 nM
GI50 [42]: 580 nM
TGI [42]: 15200 nM
GI50 [44]: 675 nM
TGI [44]: > 100000 nM
GI50 [46]: 1730 nM
TGI [46]: 9240 nM
GI50 [47]: 780 nM
TGI [47]: > 100000 nM
GI50 [48]: 1650 nM
TGI [48]: 7990 nM
GI50 [49]: 2750 nM
TGI [49]: > 100000 nM
GI50 [50]: 1520 nM
TGI [50]: > 100000 nM
GI50 [51]: 461 nM
TGI [51]: 3350 nM
GI50 [52]: 1480 nM
TGI [52]: > 100000 nM
GI50 [53]: 1160 nM
TGI [53]: > 100000 nM
GI50 [54]: 882 nM
TGI [54]: 16700 nM
GI50 [55]: 2500 nM
TGI [55]: > 100000 nM
